# Experimental data taken from PMC9014859 (Journal of Medicinal Chemistry, 2022).
# Entries after “also recorded” stand apart in the source; their conditions may differ.
# Key:
# [1] = test system: Mouse small mesenteric artery (NPR-C KO)
# [2] = test system: Rat small mesenteric artery
# [3] = target: T1, NPR-C extracellular domains (Homo sapiens, UniProt P17342); test: Fluorescence polarization; format: binding; conditions: competition against fluorescent P19 probe
# T1 sequence (P17342 27-481): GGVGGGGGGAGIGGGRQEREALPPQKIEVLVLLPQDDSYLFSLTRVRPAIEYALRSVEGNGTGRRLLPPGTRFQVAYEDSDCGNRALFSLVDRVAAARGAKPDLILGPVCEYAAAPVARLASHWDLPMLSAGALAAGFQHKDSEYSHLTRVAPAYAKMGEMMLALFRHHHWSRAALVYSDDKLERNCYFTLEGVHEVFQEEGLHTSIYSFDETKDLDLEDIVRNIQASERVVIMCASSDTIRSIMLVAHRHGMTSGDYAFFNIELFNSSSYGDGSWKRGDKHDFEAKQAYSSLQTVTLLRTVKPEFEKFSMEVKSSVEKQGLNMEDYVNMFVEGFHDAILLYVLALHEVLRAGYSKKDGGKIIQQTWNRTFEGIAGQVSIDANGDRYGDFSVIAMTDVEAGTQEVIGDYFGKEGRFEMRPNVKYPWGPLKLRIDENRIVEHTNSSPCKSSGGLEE
# [4] = test system: CYP1A2, 2B6, 2C8, 2C9, 2C19, 2D6, 3A4 (value spans the isoforms); test: in vitro; conditions: human
# [5] = in vitro; conditions: PAMPA, pH 7.4, PAMPA Papp (cm/S × 10^–6)
# [6] = target: T2, Human NPR-C in HeLa cells (Homo sapiens, UniProt P17342); test: Inhibition of forskolin-induced cAMP production in HeLa cells; conditions: 100 μM compound, forskolin 10 μM
# T2 sequence (P17342 27-541): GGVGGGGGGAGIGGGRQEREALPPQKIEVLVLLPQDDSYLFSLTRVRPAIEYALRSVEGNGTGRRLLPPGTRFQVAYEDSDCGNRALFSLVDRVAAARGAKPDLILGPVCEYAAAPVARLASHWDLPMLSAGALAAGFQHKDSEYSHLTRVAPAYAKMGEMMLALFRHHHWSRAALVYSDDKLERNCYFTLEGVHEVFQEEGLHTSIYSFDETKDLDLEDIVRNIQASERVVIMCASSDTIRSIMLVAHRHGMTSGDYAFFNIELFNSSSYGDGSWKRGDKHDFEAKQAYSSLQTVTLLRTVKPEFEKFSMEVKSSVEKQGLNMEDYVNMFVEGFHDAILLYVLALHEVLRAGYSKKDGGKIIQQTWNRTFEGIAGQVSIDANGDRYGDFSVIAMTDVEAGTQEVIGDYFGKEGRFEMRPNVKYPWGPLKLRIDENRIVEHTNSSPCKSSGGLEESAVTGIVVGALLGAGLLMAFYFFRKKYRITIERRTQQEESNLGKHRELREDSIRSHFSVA
# [7] = physchem; conditions: solubility (mg/mL), PBS, 5% DMSO, room temperature, 3 h
# [8] = in vitro; conditions: male, Sprague-Dawley, rat, hepatocytes
# [9] = in vitro; conditions: plasma
# [10] = test system: CYP isoforms 1A2, 2B6, 2C8, 2C9, 2C19, 2D6, 3A4; test: in vitro; conditions: human
# [11] = target: T3, Human FL NPR-C (27–541)-10His-Flag (Homo sapiens, UniProt P17342); test: Surface plasmon resonance; conditions: SPR, affinity model, 1:1 binding; for Kd: KD (μM)
# T3 sequence (P17342 27-541): T2 sequence (P17342 27-541)
# [12] = pH 7.4
compound,measurement,setting,value
"CC(=O)Nc1ccc(Nc2ncnc(NCCC(=O)OC(C)(C)C)n2)cc1 [Compound 1, tert-Butyl 3-((4-((4-Acetamidophenyl)amino)-1,3,5-triazin-2-yl)amino)propanoate]",reduction in potency in NPR-C KO tissue,"[1]; mouse SMA, KO vs wild-type",6.4 fold
same,reduction in potency (EC50 value) when treated with M372049,[2]; rat SMA,10 fold
same,reduction in potency (EC50 value) when treated with osteocrin,[2]; rat SMA,2.5 fold
same,FP EC50 (μM),[3],Low % binding
same,EC50,[4],> 50 µM
"COC(=O)[C@H](CC(C)C)Nc1nc(Cl)nc(N[C@H]2CC[C@H](Nc3nc(Cl)nc(N[C@@H](CC(C)C)C(=O)OC)n3)CC2)n1 [Compound 17, Dimethyl 2,2′-(((((1r,4r)-Cyclohexane-1,4-diyl)bis(azanediyl))bis(6-chloro-1,3,5-triazine-4,2-diyl))bis(azanediyl))bis(4-methylpentanoate)]",Papp,[5],< 1 ×10⁻⁶ cm/s
same,Papp,"[5]; pH 7.4, 5 h, room temperature",< 0.023 ×10⁻⁶ cm/s
same,Mouse small mesenteric artery NPR-C KO EC50 ± SEM (μM),"[1]; vasorelaxation, NPR-C knockout",maintained their activity
same,Rat small mesenteric artery EC50+NPR-C inhibitor (M372049) ± SEM (μM),"[2]; vasorelaxation, with M372049 (10 μM)",maintained their activity
same,inhibition of cAMP formation,[6],inhibition trend that did not reach statistical significance
same,solubility,[7],> 70 µg/mL
same,hepatocyte CLint,[8],< 6.4 µL/min/1e6 cells
same,half-life,"[8]; hepatocyte (rat) T1/2 (min), 1 μM test compound",> 3.33 h
same,fraction unbound,"[9]; Sprague-Dawley, human and rat",< 0.005
same,EC50,[10],4.96 to 37.8 µM
"CC(C)C[C@H](Nc1nc(Cl)nc(Nc2ccc(NC(=O)c3ccccc3)cc2)n1)C(=O)OC(C)(C)C [Compound 22, tert-Butyl (4-((4-Benzamidophenyl)amino)-6-chloro-1,3,5-triazin-2-yl)-L-leucinate]",KD (μM),[11],poor binding profile; also recorded: Rmax>>theoretical
"CC(=O)Nc1ccc(Nc2ncnc(N[C@@H](CC(C)C)C(=O)OC(C)(C)C)n2)cc1 [Compound 26, tert-Butyl (4-((4-Acetamidophenyl)amino)-1,3,5-triazin-2-yl)-L-leucinate]",inhibition of cAMP formation,[6],inhibition trend that did not reach statistical significance
same,FP EC50 (μM),[3],Inactive
"CC(=O)Nc1ccc(Nc2ncnc(N[C@@H](CC(C)C)C(=O)O)n2)cc1 [Compound 27, (4-((4-Acetamidophenyl)amino)-1,3,5-triazin-2-yl)-L-leucine]",solubility,[7],> 70 µg/mL
same,fraction unbound,[9],0.15
same,EC50,[4],> 50 µM
"CON(C)C(=O)[C@H](CC(C)C)Nc1ncnc(Nc2ccc(NC(C)=O)cc2)n1 [Compound 32, (S)-2-((4-((4-Acetamidophenyl)amino)-1,3,5-triazin-2-yl)amino)-N-methoxy-N,4-dimethylpentanamide]",Kd,[11],144 ± 7.7 µM
"CC(=O)Nc1ccc(Nc2ncnc(N[C@H](CC(C)C)C(=O)OC(C)(C)C)n2)cc1 [Compound 34, tert-Butyl (4-((4-Acetamidophenyl)amino)-1,3,5-triazin-2-yl)-D-leucinate]",KD (μM),[11],failing to pass the preliminary binding screen
"CC(=O)Nc1ccc(Nc2ncnc(NCC(=O)OC(C)(C)C)n2)cc1 [Compound 36, tert-Butyl (4-((4-Acetamidophenyl)amino)-1,3,5-triazin-2-yl)glycinate]",PAMPA Papp (cm/S × 10^–6),[12],< 1
"CC(=O)Nc1ccc(Nc2ncnc(NC(C)(C)C(=O)OC(C)(C)C)n2)cc1 [Compound 38, tert-Butyl 2-((4-((4-Acetamidophenyl)amino)-1,3,5-triazin-2-yl)amino)-2-methylpropanoate]",KD (μM),[11],did not meet the minimum binding threshold
"CC(=O)Nc1ccc(Nc2ncnc(N[C@@H](C)C(=O)OC(C)(C)C)n2)cc1 [Compound 39, tert-Butyl (4-((4-Acetamidophenyl)amino)-1,3,5-triazin-2-yl)-L-alaninate]",KD (μM),[11],did not meet the minimum binding threshold
"CC(=O)Nc1ccc(Nc2ncnc(N[C@@H](Cc3ccc(O)cc3)C(=O)OC(C)(C)C)n2)cc1 [Compound 42, tert-Butyl (4-((4-Acetamidophenyl)amino)-1,3,5-triazin-2-yl)-L-tyrosinate]",KD (μM),[11],did not meet the minimum binding threshold
"CC(=O)Nc1ccc(Nc2ncnc(N[C@H](CC(=O)OC(C)(C)C)Cc3ccccc3)n2)cc1 [Compound 44, tert-Butyl (S)-3-((4-((4-Acetamidophenyl)amino)-1,3,5-triazin-2-yl)amino)-4-phenylbutanoate]",Kd,[11],29.6 ± 4.5 µM
same,FP EC50 (μM),[3],Inactive
